# Laboratory results as given in patent US12590950B2, “Methods for predicting ER-mediated DNA damage” (UNIVERSITY OF MASSACHUSETTS, priority 2019, dated 2026).
# Legend:
# ER = details: compared to BP3; cited from earlier work
# TFF1 = assay: RT-qPCR of estrogen-responsive gene TFF1 in T47D cells; assay type: cell-based, human; details: fulvestrant 1 μM with 10 nM E2, T47D
# Procedure: RT-qPCR: RNA from T47D cells, MCF-7 Cells or flash-frozen 4th mammary gland was isolated with TRIzol (Thermofisher Scientific #15596018) and Direct-zol RNA MiniPrep Plus (Zymo Research #R2072). cDNA was prepared with Protoscript II First Strand cDNA Synthesis Kit (New England Biolabs #E6560S) and qPCR for TFF1, progesterone receptor (PGR) and Amphiregulin (AREG) was performed on CFX96 Real-Time System thermocycler (Bio-Rad) using primers in Table 1.
# T47D cells = assay: γH2AX immunostaining (DNA damage) in T47D cells; assay type: cell-based, human
# Procedure: Immunostaining: Cells were grown in clearing media for 48 h and plated on 20 mm coverslip in 12 well plates with a density of 2×10^5 cells/well. […] Cells were washed with 1×PBS, blocked in 2% BSA/PBS with 0.1% Triton-X 100 for 1 hr at room temperature (RT), incubated overnight with γH2AX antibody (Cell Signaling #9718 S) or ERα antibody (Santa Cruz Biotechnology #sc-8002) at 4° C. and 1 hour with secondary antibody. S9.6: Cells were fixed in ice-cold 100% methanol for 10 min at −20° C., permeabilized in 100% acetone for 1 min at RT, blocked for 30 min in saline sodium citrate pH 7 (SSC, 4×), 3% BSA, 0.1% Triton-X and incubated with S9.6 (Kerafast #ENH001) 2 hr at RT followed by 1 h with secondary antibody. If indicated, slides were treated with RNase H (NEB #M0297L) for 4 hr at 37° C. prior to incubation with primary antibody. Stained cells were mounted with Vectashield mounting medium containing DAPI (Vector Laboratories #H-1200). Slides were imaged at 60× (immersion oil) with Nikon A1 Spectral Confocal microscope. Analysis of γH2AX and S9.6 intensity per nucleus or foci per nucleus was calculated using Nikon analysis software, where DAPI was used as a mask for the nucleus.
SMILES,ER transactivation potential (ER),effect on transcriptional responses (TFF1) to E2 (TFF1),"effect on E2-induced γH2AX intensity (T47D cells; fulvestrant 1 μM with 10 nM E2, T47D)","effect on γH2AX intensity in response to 5 μM BP3 and 5 μM PP (T47D cells; fulvestrant 1 μM, T47D)"
"O=C(c1ccccc1)c1ccc(O)cc1O [2,4-diOH-BP]",higher ER transactivation potential compared to BP3,,,
C[C@]12CC[C@@H]3c4ccc(O)cc4C[C@@H](CCCCCCCCC[S+]([O-])CCCC(F)(F)C(F)(F)F)[C@H]3[C@@H]1CC[C@@H]2O (stereo partly shown) [fulvestrant],,blocked,significantly reduced,inhibited
